Laboratory results taken from patent US7273880B2, “Selective NPY (Y5) antagonists” (H. Lunbeck A/S, priority 1999, dated 2007).

Tests used:
[1] = molecular target: T1, human Y5 receptor (hNPY-5) (Homo sapiens, UniProt Q15761); assay: Radioligand binding to membranes, cloned human Y5 receptor; settings: cloned human NPY Y5 receptor, radioligand competition binding; Tables 1-3; read-out: Ki, nM hNPY-5
T1 construct: expressed in transfected cells; host or cells: mouse fibroblast LM(tk-) cells, e.g. L-hY5-7 (ATCC CRL-11995)
T1 sequence (Q15761 1-445): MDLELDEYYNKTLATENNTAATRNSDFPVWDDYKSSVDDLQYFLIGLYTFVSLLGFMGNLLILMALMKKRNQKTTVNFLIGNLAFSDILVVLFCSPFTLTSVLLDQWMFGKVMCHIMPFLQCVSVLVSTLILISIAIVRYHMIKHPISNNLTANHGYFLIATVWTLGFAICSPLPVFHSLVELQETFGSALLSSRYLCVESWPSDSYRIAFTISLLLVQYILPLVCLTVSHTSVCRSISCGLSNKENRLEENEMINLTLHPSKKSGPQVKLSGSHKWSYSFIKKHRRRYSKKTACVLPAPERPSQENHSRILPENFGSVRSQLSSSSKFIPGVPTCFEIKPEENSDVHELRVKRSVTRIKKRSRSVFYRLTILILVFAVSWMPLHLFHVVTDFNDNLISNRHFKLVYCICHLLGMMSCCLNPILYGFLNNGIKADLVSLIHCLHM
Procedure, shortened: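 Competition binding on membranes from stably transfected 293 or LM(tk-) cells, with 0.08 nM ¹²⁵I-PYY in pH 7.4 HEPES buffer plus 0.1% BSA, 120 min at 30 °C, filtration and counting. Nonspecific binding defined by 300 nM human NPY, or 100 nM human PP for Y4; nonlinear regression.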

[2] = molecular target: hNPY-1,2,4 (human Y1, Y2, Y4 receptors); assay: Radioligand binding to membranes, cloned human Y1, Y2 and Y4 receptors; settings: one bound given for all three
Protocol: Binding of the compounds of the present invention to human Y1, Y2, Y4, and Y5 receptors was evaluated using stably transfected 293 or LM(tk-) cells as described above. Stably transfected cell lines which may be used for binding assays include, for example, for the human Y1 receptor, 293-hY1-5 (deposited Jun. 4, 1996, under ATCC Accession No. CRL-12121), for the human Y2 receptor, 293-hY2-10 (deposited Jan. 27, 1994, under ATCC Accession No. CRL-11537), for the human Y4 receptor, L-hY4-3 (deposited Jan. 11, 1995, under ATCC Accession No. CRL-11779), and for human Y5 receptor, L-hY5-7 (deposited Nov. 15, 1995, under ATCC Accession No. CRL-11995). These cell lines were deposited with the American Type Culture Collection (ATCC), 10801 University Blvd., Manassas, Va. 20110-2209, U.S.A. under the provisions of the Budapest Treaty for the International Recognition of the Deposit of Microorganisms for the Purposes of Patent Procedure.
Membranes were harvested from COS-7 cells 48 hours after transient transfection. Adherent cells were washed twice in ice-cold phosphate buffered saline (138 mM NaCl, 8.1 mM Na2HPO4, 2.5 mM KCl, 1.2 mM KH2PO4, 0.9 mM CaCl2, 0.5 mM MgCl2, pH 7.4) and lysed by sonication in ice-cold sonication buffer (20 mM Tris-HCl, 5 mM EDTA, pH 7.7). Large particles and debris were cleared by low speed centrifugation (200×g, 5 min, 4° C.). Membranes were collected from the supernatant fraction by centrifugation (32,000×g, 18 min, 4° C.), washed with ice-cold hypotonic buffer, and collected again by centrifugation (32,000×g, 18 min, 4° C.). The final membrane pellet was resuspended by sonication into a small volume of ice-cold binding buffer (˜1 ml for every 5 plates: 10 mM NaCl, 20 mM HEPES, 0.22 mM KH2PO4, 1.26 mM CaCl2, 0.81 mM MgSO4, pH 7.4). Protein concentration was measured by the Bradford method (Bradford, 1976) using Bio-Rad Reagent, with bovine serum albumin as a standard. Membranes were held on ice for up to one hour and used fresh, or flash-frozen and stored in liquid nitrogen.
Membranes were prepared similarly from 293, LM(tk-), and NIH-3T3 cells. To prepare membranes from baculovirus infected cells, 2×10^7 Sf21 cells were grown in 150 mm tissue culture dishes and infected with a high-titer stock of hY5BB3. Cells were incubated for 2-4 days at 27° C., no CO2 before harvesting and membrane preparation as described above.
Membrane suspensions were diluted in binding buffer supplemented with 0.1% bovine serum albumin to yield an optimal membrane protein concentration so that ^125I-PYY (or alternative radioligand such as ^125I-NPY, ^125I-PYY3-36, or ^125I-[Leu^31Pro^34]PYY) bound by membranes in the assay was less than 10% of ^125I-PYY (or alternative radioligand) delivered to the sample (100,000 dpm/sample=0.08 nM for competition binding assays). ^125I-PYY (or alternative radioligand) and peptide competitors were also diluted to desired concentrations in supplemented binding buffer. Individual samples were then prepared in 96-well polypropylene microtiter plates by mixing 125I-PYY (25 μL) (or alternative radioligand), competing peptides or supplemented binding buffer (25 μL), and finally, membrane suspensions (200 μL). Samples were incubated in a 30° C. water bath with constant shaking for 120 min. Incubations were terminated by filtration over Whatman GF/C filters (pre-coated with 1% polyethyleneimine and air-dried before use), followed by washing with 5 mL of ice-cold binding buffer. Filter-trapped membranes were impregnated with MeltiLex solid scintillant (Wallac, Turku, Finland) and counted for ^125I in a Wallac Beta-Plate Reader. Alternatively, incubations were carried out in GF/C filter plates (pre-coated with 1% polyethyleneimine and air-dried before use), followed by vacuum filtration and three washes of 300 μL of ice-cold binding buffer. 50 μL of UltimaGold (Packard) scintillant were added and counted for ^125I in a Wallac MicroBeta Trilux. […]

Ki [1] | Ki [2] | Compound
15.1 nM | > 10000 nM | COc1ccc(C)cc1S(=O)(=O)NC[C@H]1CC[C@H](Nc2nc3c(s2)CCOc2ccccc2-3)CC1 [Example 48, trans-1-Aza-4,5-dihydro-2-{4-(2-methoxy-5-methyl)phenyl-sulfonylaminomethyl}cyclohexylamino-6-oxa-3-thia-benzo[e]azulene]
11.9 nM | > 10000 nM | O=S(=O)(N[C@H]1CC[C@H](Nc2nc3c(s2)CCCc2ccc(F)cc2-3)CC1)c1cccnc1 [Example 54, trans-1-Aza-9-fluoro-4,5-dihydro-2-(4-(3-pyridyl-sulfonylamino)cyclohexyl)amino-3-thia-benzo[e]azulene]
3.9 nM | > 10000 nM | O=S(=O)(N[C@H]1CC[C@H](CNc2nc3c(s2)CCCc2ccc(F)cc2-3)CC1)c1ccccc1F [Example 42, trans-1-Aza-9-fluoro-2-{4-(2-fluoro)phenylsulfonyl-amino}-cyclohexylmethylamino-4,5-dihydro-3-thia-benzo[e]azulene]
3.2 nM | > 10000 nM | CCN(CC)S(=O)(=O)NCCCCNc1nc2c(s1)CCSc1ccccc1-2 [Example 104, N′-[4-(4,5-Dihydrobenzo[2,3]thiepino[4,5-d][1,3]thiazol-2-ylamino)butyl]-N,N-diethylsulfamide]
91 nM | > 10000 nM | CC(C)(C)OC(=O)NCCCCCNc1nc2c(s1)CCSc1ccc(F)cc1-2 [Example 105, tert-Butyl N-{5-[(9-fluoro-4,5-dihydrobenzo[2,3]-thiepino[4,5-d][1,3]thiazol-2-yl)amino]pentyl}-carbamate]
4.8 nM | > 10000 nM | O=S(=O)(CC(F)(F)F)NCCCCNc1nc2c(s1)CCCc1ccc(F)cc1-2 [Example 39, 1-Aza-9-fluoro-4,5-dihydro-2-(4-(2,2,2-trifluoroethyl)-sulfonylamino)butylamino-3-thia-benzo[e]azulene]
19.5 nM | > 10000 nM | O=S(=O)(NC[C@H]1CC[C@H](Nc2nc3c(s2)CCCc2ccc(F)cc2-3)CC1)c1ccc(F)c(F)c1 [Example 40, trans-1-Aza-9-fluoro-2-{4-(3,4-difluorophenyl)-sulfonyl-aminomethyl}cyclohexylamino-4,5-dihydro-3-thia-benzo[e]azulene]

Continued, molecule first:

Compound | Ki [1] | Ki [2]
COc1ccc(S(=O)(=O)NC[C@H]2CC[C@H](Nc3nc4c(s3)CCCc3ccc(F)cc3-4)CC2)cc1 [Example 27, trans-1-Aza-9-fluoro-4,5-dihydro-2-{4-(4-methoxy-phenyl)-sulfonylaminomethyl}cyclohexylamino-3-thia-benzo[e]azulene] | 9.2 nM | > 10000 nM
CCS(=O)(=O)NCCCCCNc1nc2c(s1)CCCc1ccc(F)cc1-2 [Example 21, 1-Aza-9-fluoro-2-(5-ethylsulfonylamino)pentylamino-4,5-dihydro-3-thia-benzo[e]azulene] | 2.5 nM | > 10000 nM
CCN(CC)S(=O)(=O)NCCCCCNc1nc2c(s1)CCCc1ccc(F)cc1-2 [Example 14, 1-Aza-9-fluoro-4,5-dihydro-2-(5-(diethyl-aminosulfonyl-amino)pentyl)amino-3-thia-benzo[e]-azulene] | 2.1 nM | > 10000 nM
O=S(=O)(NCCCCCNc1nc2c(s1)CCCc1ccc(F)cc1-2)c1ccc(F)c(F)c1 [Example 17, 1-Aza-2-(5-(3,4-difluorophenyl)sulfonylamino)-pentylamino-9-fluoro-4,5-dihydro-3-thia-benzo[e]-azulene] | 11 nM | > 10000 nM
O=S(=O)(NC[C@H]1CC[C@H](Nc2nc3c(s2)CCCc2ccc(F)cc2-3)CC1)c1cccs1 [Example 30, trans-N2-(4-(2-Thienylsulfonyl)aminomethyl)-cyclohexyl-9-fluoro-5,6-dihydro-4H-benzo[6,7]-cyclohepta[d][1,3]thiazol-2-amine] | 4.2 nM | > 10000 nM
CS(=O)(=O)NCCCCNc1nc2c(s1)CCCc1ccc(F)cc1-2 [Example 5, 1-Aza-9-fluoro-4,5-dihydro-2-(4-(methane-sulfonylamino)-butyl)amino-3-thia-benzo[e]azulene] | 19.8 nM | > 10000 nM
COc1ccc(S(=O)(=O)NCCCCCNc2nc3c(s2)CCCc2ccc(F)cc2-3)cc1 [Example 18, 1-Aza-9-fluoro-4,5-dihydro-2-(5-(4-methoxyphenyl)-sulfonylamino)pentylamino-3-thia-benzo[e]azulene] | 7.1 nM | > 10000 nM
Cn1cnc(S(=O)(=O)NC[C@H]2CC[C@H](Nc3nc4c(s3)CCCc3ccc(F)cc3-4)CC2)c1 [Example 32, trans-1-Aza-9-fluoro-4,5-dihydro-2-{4-(1-methylimidazolyl-4-yl)sulfonylaminomethyl}cyclohexyl-amino-3-thia-benzo[e]azulene] | 2.9 nM | > 10000 nM
CCN(CC)S(=O)(=O)NCCCCNc1nc2c(s1)CCCc1ccc(F)cc1-2 [Example 22, 1-Aza-2-(4-diethylaminosulfonylamino)butylamino-9-fluoro-4,5-dihydro-3-thia-benzo[e]azulene] | 2.9 nM | > 10000 nM
Cc1noc(C)c1S(=O)(=O)NC[C@H]1CC[C@H](Nc2nc3c(s2)CCCc2ccc(F)cc2-3)CC1 [Example 33, trans-1-Aza-9-fluoro-4,5-dihydro-2-{4-(3,5-dimethylisoxazol-4-yl)sulfonylaminomethyl}cyclohexyl-amino-3-thia-benzo[e]azulene] | 6.8 nM | > 10000 nM
CS(=O)(=O)NCCCCCNc1nc2c(s1)CCCc1ccc(F)cc1-2 [Example 10, 1-Aza-9-fluoro-4,5-dihydro-2-(5-(methylsulfonyl-amino)-pentyl)amino-3-thia-benzo [e]azulene] | 2.4 nM | > 10000 nM
O=S(=O)(NC[C@H]1CC[C@H](Nc2nc3c(s2)CCCc2ccc(F)cc2-3)CC1)c1ccccc1F [Example 26, trans-1-aza-9-fluoro-2-(4-(2-fluorophenyl)sulfonyl-amino-methyl)cyclohexylamino-4,5-dihydro-3-thia-benzo [e]-azulene] | 13.1 nM | > 10000 nM
O=S(=O)(NCCCCCNc1nc2c(s1)CCCc1ccc(F)cc1-2)c1ccc(F)cc1F [Example 12, 1-Aza-9-fluoro-4,5-dihydro-2-(5-(2,4-difluoro-phenyl)sulfonylamino)pentylamino-3-thia-benzo[e]-azulene] | 6.1 nM | > 1000 nM
